Data taken from paper PMC12699035, “Exploring market-approved azoles as potential breast cancer therapeutics targeting the VEGFR-2 biotarget” (Scientific Reports, 2025).
Where two headings read alike, the source gives them in different places.

Tests used:
MCF-10A cells = assay: Cytotoxicity against MCF-10A cells, MTT assay (five doses); type: cell-based; settings: Homo sapiens, MCF-10A normal cells, five dose concentrations, n = 3, read-out: MCF-10A IC50 ± SD
VEGFR-2 = biological target: T1, VEGFR-2 (Homo sapiens, UniProt P35968); assay: VEGFR-2 kinase inhibition, luminescent VEGFR2 (KDR) kinase assay kit (BPS Bioscience # 40325); type: biochemical
T1 construct: purchased BPS Bioscience 40325
Method: Functionally, this pathway operates in autocrine and intracrine modes to promote cell proliferation, survival, and resistance to apoptosis through downstream effectors such as PI3K/AKT and p38 MAPK.
SIT, FLU and TNZ were tested using the five dose sigmoidal curves to determine the IC50 values. […] At the end of these experiment, anti-tumor potentiality was recorded using tumor weight (mg), tumor volume (mm^3), and the tumor inhibition ratio (TIR%). Hematological parameters of Hemoglobin (Hb, g/dL), RBC’s count (10^6/μL), and WBC’s count (10^3/μL) were investigated, along with histopathological and immunohistochemical staining of the VEGR2 protein.
Compounds Itraconazole. […] [12].

VEGF = assay: Immunohistochemical staining of VEGF in SEC tumor sections; type: in vivo, mice; settings: IHC of SEC tumor
Description: VEGF has been considered a biomarker for VEGFR-2 bioactivity, as it binds to and activates this kinase receptor, playing a crucial role in angiogenesis. High VEGF levels are often associated with increased VEGFR-2 expression and activity, making VEGF a marker for VEGFR-2's function and tumor growth. […] The staining intensity is strong (+ 3), with dark brown cytoplasmic staining in most tumor cells. The immunoreactive score (IRS), calculated by multiplying the staining intensity score and the percentage of positive cells, is 9–12, indicating a high level of VEGF expression. This intense VEGF expression correlates with the presence of numerous irregular and dilated blood vessels in the tumor microenvironment.
The paraffin-infiltrated tissue was sliced into thin sections (4-6 μm) using a microtome and floated in a water bath. The sections were then mounted onto charged slides and left to dry overnight. The use of charged slides ensures the sections adhere properly to the slide. To carry out antibody staining, the paraffin wax was removed from the sample, and the tissue was rehydrated. The paraffin was eliminated by placing the tissue sections in three containers of xylene for 5 minutes each. Rehydration began by immersing the sections in two containers of 100% ethanol for 10 minutes each, followed by two containers of 95% ethanol for 10 minutes each. Finally, to complete the rehydration, the sections were washed twice in deionized water for 5 minutes each.
For antigen retrieval, the slides are heated in 10 mM Tris/1 mM EDTA, pH 9.0, kept at a sub-boiling temperature for 18 minutes, and then allowed to cool at room temperature for 30 minutes. For chromogenic staining detection, the sections are rinsed in deionized water three times for 5 minutes each, and then the endogenous peroxidase activity in the tissue sections is quenched to prevent high background staining by incubating the sections in 3% hydrogen peroxide for 10 minutes. Afterward, the sections are washed twice in deionized water for 5 minutes each, followed by a single wash in wash buffer for 5 minutes. A hydrophobic pen is used to carefully draw a large circle around the sample, ensuring it doesn’t touch the sample, creating a hydrophobic boundary to achieve optimal antibody staining quality. To prevent non-specific antibodies from binding to the tissue, each section is blocked with 100–400 µl of blocking solution for 1 hour at room temperature in a humidified chamber. The blocking solution was discarded, and 100–400 µl of diluted primary antibody was applied. […]
The slides were incubated overnight at 4°C in a humidified chamber. […] Then, 100–400 µl of Signal Stain DAB was applied to each section and monitored closely for 1–10 minutes until an acceptable staining intensity was achieved. […]

MCF-7 cells = assay: Cytotoxicity against MCF-7 cells, MTT assay (single dose and five doses)

T1 sequence (P35968 20-1356): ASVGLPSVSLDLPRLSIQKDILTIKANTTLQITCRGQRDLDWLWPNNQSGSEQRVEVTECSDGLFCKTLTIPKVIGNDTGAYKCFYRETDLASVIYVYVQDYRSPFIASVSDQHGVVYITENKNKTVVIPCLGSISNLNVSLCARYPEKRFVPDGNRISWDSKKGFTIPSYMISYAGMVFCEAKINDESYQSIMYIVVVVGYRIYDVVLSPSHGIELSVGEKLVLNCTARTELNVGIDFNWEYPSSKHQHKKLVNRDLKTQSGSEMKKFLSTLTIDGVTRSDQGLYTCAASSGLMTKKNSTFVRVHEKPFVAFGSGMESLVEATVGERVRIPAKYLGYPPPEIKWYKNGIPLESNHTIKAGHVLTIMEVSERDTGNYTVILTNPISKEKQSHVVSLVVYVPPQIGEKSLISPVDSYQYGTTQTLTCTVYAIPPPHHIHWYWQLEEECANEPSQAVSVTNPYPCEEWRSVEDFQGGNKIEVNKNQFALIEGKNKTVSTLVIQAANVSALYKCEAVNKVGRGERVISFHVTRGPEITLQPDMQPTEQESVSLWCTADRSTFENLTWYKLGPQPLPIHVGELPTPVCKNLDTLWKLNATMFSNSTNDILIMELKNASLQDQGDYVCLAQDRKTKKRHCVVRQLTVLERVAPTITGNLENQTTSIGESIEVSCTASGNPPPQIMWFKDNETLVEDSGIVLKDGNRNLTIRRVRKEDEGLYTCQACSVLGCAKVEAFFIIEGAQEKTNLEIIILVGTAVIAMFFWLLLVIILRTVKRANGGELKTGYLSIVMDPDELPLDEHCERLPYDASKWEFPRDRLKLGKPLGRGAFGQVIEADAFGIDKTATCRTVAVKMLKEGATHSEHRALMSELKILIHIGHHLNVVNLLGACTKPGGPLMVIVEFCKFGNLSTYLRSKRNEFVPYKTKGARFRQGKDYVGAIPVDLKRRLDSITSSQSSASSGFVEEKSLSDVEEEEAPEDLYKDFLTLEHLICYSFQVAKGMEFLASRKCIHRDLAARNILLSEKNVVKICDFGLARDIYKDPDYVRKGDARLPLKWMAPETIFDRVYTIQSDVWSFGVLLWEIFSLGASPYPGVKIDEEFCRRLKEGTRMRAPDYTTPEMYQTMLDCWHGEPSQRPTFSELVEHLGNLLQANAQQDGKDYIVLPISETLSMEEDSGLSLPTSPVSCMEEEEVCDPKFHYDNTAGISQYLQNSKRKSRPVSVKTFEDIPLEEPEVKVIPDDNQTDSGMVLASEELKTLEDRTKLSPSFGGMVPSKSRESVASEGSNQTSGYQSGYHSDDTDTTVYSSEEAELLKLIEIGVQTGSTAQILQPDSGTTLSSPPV

With CCC(C)n1ncn(-c2ccc(N3CCN(c4ccc(OCC5COC(Cn6cncn6)(c6ccc(Cl)cc6Cl)O5)cc4)CC3)cc2)c1=O (centres unmarked) [Itraconazole, itraconazole] the IC50 (MCF-10A cells) was 49.6 ± 2.5 µM, the “VEGFR-2 enzyme inhibition LogIC50 (Fig. 3)” value (VEGFR-2; dose-response curve fit, unit not given) was 1.515 and the IC50 (VEGFR-2; enzyme inhibition, dose-response, non-linear regression, read-out: VEGFR-2 inhibition IC50) was 32.7 µM. For the same compound, the “immunoreactive score (IRS)” value (VEGF; scale 0-12, SEC control 9–12) was 4–8, the “percentage of VEGF-positive tumor cells” value (VEGF; SEC control 80–90%) was 40–60% and the viability at 100 µg/mL (MCF-7 cells; Homo sapiens, MCF7, read-out: Average viability%) was 69.5%. The IC50 (MCF-7 cells; Homo sapiens, MCF7, read-out: MCF-7 IC50 ± SD, MCF-7, five dose concentrations, MTT, n = 3) was 25.7 ± 0.9 µM, the viability at 100 µg/mL (MCF-7 cells; Homo sapiens, MCF7, read-out: Viability (%) 1) was 70.8% and the viability at 100 µg/mL (MCF-7 cells; Homo sapiens, MCF7, read-out: Viability (%) 2) was 70.1%. For the same compound, the viability at 100 µg/mL (MCF-7 cells; Homo sapiens, MCF7, read-out: Viability (%) 3) was 67.7%, the “Average OD” value (MCF-7 cells; MCF-7, single dose 100 μg/mL, MTT optical density, average of triplicates) was 2.24 and the OD1 (MCF-7 cells; MCF-7, single dose 100 μg/mL, MTT optical density, replicate 1) was 2.28. For the same compound, the OD2 (MCF-7 cells; MCF-7, single dose 100 μg/mL, MTT optical density, replicate 2) was 2.26 and the OD3 (MCF-7 cells; MCF-7, single dose 100 μg/mL, MTT optical density, replicate 3) was 2.18.
